Where “and” joins values, the source holds several entries; their conditions need not be identical. Identical values can stand only once. Entries after “also recorded” stand apart in the source; their conditions may differ. Like-named read-outs stand apart in the source and are kept apart here. Where no end group is shown, it is not given here.
Experiments:
[1] = test system: Hansen YC-380 lactic ferment; test: Fermentation of dairy mix containing DMV C12 hydrolysate (FIG. 3); design: species or system lactic bacteria; conditions: 1.5 g/l of DMV C12 hydrolysate, fermentation up to pH 4.7
Excerpt: FIG. 3: Compared peptide profiles (LC-MS/MS chromatograms) of a dairy “mix” containing 1.5 g/l of DMV C12® hydrolysate, before (1) and after (2) fermentation up to pH 4.7 by the Hansen YC-380 lactic ferment. Virtually all of the hydrolysate peptides, including the bioactive C12 peptide (αS1 [23-34] fragment), disappeared following metabolism by the ferment strains.
In addition, in order to verify that this phenomenon was not specific to Lactium®, several combinations of ferments and other ingredients containing bioactive peptides were studied by implementing the same test (reconstituted milk and an ingredient to be tested in an amount of 1.5 g/l, fermented under standard conditions, fermentation stopped at pH 4.7, two repetitions).

[2] = In vivo animal; Migliore-Samour 1988; cited from earlier work
platelet aggregation = conditions: In vitro; Jollès 1986; Raha 1988; cited from earlier work
[3] = test system: experimental arterial thrombosis; conditions: Rat and guinea pig with experimental arterial thrombosis; after IV injection; Drouet 1990; cited from earlier work
[4] = test system: mouse peritoneal macrophages; conditions: In vitro; Parker 1996; cited from earlier work
arterial pressure [5] = conditions: Hypertensive humans (36 subjects); 8 weeks of ingestion of 95 ml/d; Hata 1996; cited from earlier work
arterial pressure [6] = conditions: Hypertensive rats; after ingestion; Nakamura 1995; cited from earlier work
arterial pressure [7] = conditions: Normal rats; Nakamura 1995; cited from earlier work
Staphylococcus aureus = conditions: Mouse, sheep; IM injection; Lahov 1996; cited from earlier work
[8] = Fermented product heat treated at 75° C for 1 minute, storage at 10° C (FIG. 5); conditions: 75° C. for approximately 1 min; stored at 10° C. until UBD
Description: Since the consumption of the bioactive peptide is caused by the metabolic activity of the ferments, it may be considered useful to reduce this phenomenon by destroying all or part of the microorganisms, for example using a suitable heat treatment (thermization or pasteurization).
FIG. 5: Curves illustrating the evolution of the residual content in bioactive αS1 [91-100] peptide added after fermentation in a fermented product which was then heat treated at 75° C. for 1 minute and then stored at 10° C. until the use-by date (UBD).

S. thermophilus I-1630 = test: Fermentation of Lactium milk by pure strain; conditions: dairy mix containing 1.5 g/l of Lactium; pure strain I-1630; stopped at pH 4.7
Description: (§1) After centrifugation, the supernatant constituted the representative sample of the peptide content of the fermented medium. • Said sample was injected into an Agilent 1100 HPLC system (Agilent Technologies France, 1 rue Galvani, 91745 Massy Cedex, France), equipped with a Waters Symetry® column suitable for peptide analysis (5 μm, 2.1×150 mm, WAT056975, Waters France, 5, rue Jacques Monod, 78280 Guyancourt) at a temperature of 40° C. and a flow rate of 0.25 ml/min. The peptides were eluted in a conventional way with an increasing gradient of solvent B (acetonitrile and 0.100% formic acid) in solvent A (water and 0.106% formic acid) for a period of 40 minutes to 2 hours as a function of the resolution desired. • Detection was carried out using a specific MS/MS detector, for example with an ionic trap device such as the Esquire 3000+(Bruker Daltonique, rue de l'Industrie, 67166 Wissembourg Cedex) set either for overall analysis of peptide content (MS-MS mode) or for the precise and specific quantification of a peptide from its characteristic fragments. For example, the αS1 [91-100] peptide was isolated from its mass (doubly charged ion of mass 634.5 Da) and quantified from the intensity of its characteristic daughter ions after fragmentation (ions for m/z=991.5 Da, 771.5 Da and 658.3 Da). In an even more precise manner, an internal standard comprised of the same doubly deuterated synthetic peptide (993.5 Da characteristic fragment) made it possible to take into account and to exclude potential interference related to the matrix.
(§2) In order to verify that this phenomenon was not specific to the two ferments used in paragraph 1.1) above, the principle industrial ferments, as well as various pure strains used in the composition of said ferments, were examined using the same test: milk reconstituted from powdered milk, to which Lactium® was added in an amount of 1.5 g/l, was fermented under standard conditions (optimal temperature for the ferment between 37° C. and 42° C., fermentation stopped at pH 4.7, two repetitions). Analysis of the level of bioactive αS1 [91-100] peptide was then carried out on the sample before and after fermentation.
(§3) In table 3 above, which reflects the consumption of the bioactive αS1 [91-100] peptide by various ferments and industrial strains during the fermentation of a dairy mix containing 1.5 g/l of Lactium®, the pure strains were identified by their CNCM (Pasteur Institute, Paris, France) number and deposit date.

Lactobacillus I-1968 = test: Fermentation of Lactium milk by pure strain; conditions: dairy mix containing 1.5 g/l of Lactium; pure strain I-1968; stopped at pH 4.7
Description: as §1, §2, §3

Lactobacillus I-2809 = test: Fermentation of Lactium milk by pure strain; conditions: dairy mix containing 1.5 g/l of Lactium; pure strain I-2809; stopped at pH 4.7
Description: as §1, §2, §3

S. thermophilus I-1477 = test: Fermentation of Lactium milk by pure strain; conditions: dairy mix containing 1.5 g/l of Lactium; pure strain I-1477; stopped at pH 4.7
Description: as §1, §2, §3

Lactobacillus I-1519 = test: Fermentation of Lactium milk by pure strain; conditions: dairy mix containing 1.5 g/l of Lactium; pure strain I-1519; stopped at pH 4.7
Description: as §1, §2, §3

Lactobacillus I-1632 = test: Fermentation of Lactium milk by pure strain; conditions: dairy mix containing 1.5 g/l of Lactium; pure strain I-1632; stopped at pH 4.7
Description: as §1, §2, §3

[9] = test system: ferment consisting of a mixture of the strains I-2783, I-2774, I-2835 and I-1968, or YC-380; test: Fermentation of dairy mix supplemented with Lactium; residual peptides by HPLC-MS/MS; design: species or system lactic bacteria; conditions: 1.5 g/l Lactium added before fermentation; four-strain ferment or YC-380; to pH 4.70
Description: The medium was prepared by hydration of powdered skim milk to 120 g/l, supplemented with 1.5 g/l of Lactium® (corresponding to approximately 30 mg/l of the bioactive αS1 [91-100] peptide), then pasteurized at 95° C. for 8 minutes.
The lactic ferment was added in a proportion of 0.02% and fermentation was carried out at the optimal temperature for the selected ferment (37-42° C.) until a pH of 4.70 was reached.
After centrifugation, the supernatant constituted the representative sample of the peptide content of the fermented medium. • Said sample was injected into an Agilent 1100 HPLC system (Agilent Technologies France, 1 rue Galvani, 91745 Massy Cedex, France), equipped with a Waters Symetry® column suitable for peptide analysis (5 μm, 2.1×150 mm, WAT056975, Waters France, 5, rue Jacques Monod, 78280 Guyancourt) at a temperature of 40° C. and a flow rate of 0.25 ml/min. […] For example, the αS1 [91-100] peptide was isolated from its mass (doubly charged ion of mass 634.5 Da) and quantified from the intensity of its characteristic daughter ions after fragmentation (ions for m/z=991.5 Da, 771.5 Da and 658.3 Da). […]

[10] = test system: ferment containing strains I-2783, I-2774, I-2835 and I-1968; test: Peptide added after fermentation, storage at 10° C (FIG. 4); design: species or system lactic bacteria
Description: FIG. 4: Curves illustrating the evolution of the residual content in bioactive αS1 [91-100] peptide in a final product comprised of 95% mass fermented by the ferment containing strains I-2783, I-2774, I-2835 and I-1968 and 5% flavored sugar syrup containing the αS1 [91-100] peptide, during storage at 10° C. The experiment was comprised of four independent tests: E1, E2, E3 and E4.
A logical alternative to the procedure studied above is to introduce the functional ingredient after fermentation (“delayed differentiation” procedure), for example with the syrup used to flavor the fermented mass.

Substance: C12 peptide: bioactive C12 peptide (αS1 [23-34] fragment) of DMV C12® hydrolysate (FFVAPFPEVFGK; UniProt P02662 38-49, looked up, fragment)
- hydrolysate peptides after fermentation (LC-MS/MS peptide profile) [1]: disappeared

Substance: Casein 63-68: Bovine β-casein, Casein 63-68 (PGPIPN; UniProt P02666 78-83, looked up, fragment)
- protection in vivo [2]: No protection in vivo

Substance: Casein 191-193: Bovine β-casein, Casein 191-193 (LLY; UniProt P02666 206-208, looked up, fragment)
- protection in vivo [2]: No protection in vivo

Substance: Human lactotransferrin tetrapeptide (39-42): Human lactotransferrin tetrapeptide (39-42) (RDSP; UniProt P02788 58-61, looked up, fragment)
- platelet aggregation (platelet aggregation): Inhibition of platelet
- antithrombotic activity [3]: after IV injection, antithrombotic

Substance: Human β-casein 54-59: Human β-casein 54-59 (VEPIPY; UniProt P05814 69-74, looked up, fragment)
- sheep red blood cell phagocytosis by mouse peritoneal macrophages [4]: Stimulation of sheep red blood

Substance: II-Pro-Pro
- arterial pressure (arterial pressure [5]): decrease in arterial pressure
- arterial pressure (arterial pressure [6]): ingestion, decrease in arterial
- arterial pressure (arterial pressure [7]): Normal rats: no effect

Substance: Peptide 106-116 of bovine κ-casein: Peptide 106-116 of bovine κ-casein (MAIPPKKNQDK; UniProt P02668 127-137, looked up, fragment)
- platelet aggregation (platelet aggregation): Inhibition of platelet

Substance: RPKHPIKHQGLPQEVLNENLLRF [αS1B-casein fragment (1-23 N terminal)]
- efficacy against Staphylococcus aureus (Staphylococcus aureus): Mouse, sheep: effective via IM injection

Substance: Val-Pro-Pro
- arterial pressure (arterial pressure [5]): decrease in arterial pressure
- arterial pressure (arterial pressure [6]): ingestion, decrease in arterial
- arterial pressure (arterial pressure [7]): Normal rats: no effect

Substance: α-lactalbumin 51-53: α-lactalbumin 51-53 (GLF; UniProt P00711 70-72, looked up, fragment)
- sheep red blood cell phagocytosis by mouse peritoneal macrophages [4]: Stimulation of sheep red blood

Substance: αS1 [91-100] peptide: peptide with anti-convulsive properties contained in milk protein hydrolysates, marketed by Ingredia under the name Lactium® (YLGYLEQLLR; UniProt P02662 106-115, looked up, fragment)
- stability of αS1 [91-100] peptide in heat-treated fermented product [8]: possible to assure the stability; also recorded: possible to preserve
- % of αS1 [91-100] peptide remaining after fermentation (S. thermophilus I-1630): 0.3%
- % of αS1 [91-100] peptide remaining after fermentation (Lactobacillus I-1968): 1.6%
- % of αS1 [91-100] peptide remaining after fermentation (Lactobacillus I-2809): 0.4%
- % of αS1 [91-100] peptide remaining after fermentation (S. thermophilus I-1477): 0.3%
- % of αS1 [91-100] peptide remaining after fermentation (Lactobacillus I-1519): 0.1%
- % of αS1 [91-100] peptide remaining after fermentation (Lactobacillus I-1632): 0.2%
- bioactive αS1 [91-100] peptide consumed after fermentation [9]: more than 95%
- initial quantity of active peptide left on the use-by date (UBD) ([10]; added cold (4° C.) after fermentation, 1.5 g of Lactium per kg of final product, storage at 10° C.): 30-40%
- αS1 [91-100] peptide disappeared during storage of the final product ([10]; after 10 days, fresh products whose UBD is 28 days): 35-50% and 35-55%

Source: patent publication US20070298144A1, “Method for Protecting Bioactive Food Ingredients Using Decoy Ingredients” (COMPAGNIE GERVAIS DANONE, priority 2004, published 2007)
